Assay results reported in patent publication US7632843B2, “Treatment of psychostimulant addiction” (priority 2002, dated 2009).
Like-named read-outs stand apart in the source and are kept apart here.

How the values were obtained:
male Wistar rats = experiment: Craving model: within session extinction and reinstatement paradigm in rats self-administering cocaine; type: in vivo, Rattus norvegicus
Procedure: The study was performed in male Wistar rats (Rattus norvegicus) (the number is given above the columns in the figures) each weighing 180 to 210 g at the beginning of the experiment. The animals used in this experiment were maintained on a 12-hour dark-light cycle under controlled conditions at temperature 22 to 24° C., individually housed in standard cages with free excess to food and water.
In the tests the following active substances were used: • Cocaine hydrochloride • Bromocriptine mesylate • LEK-8829 (9,10-didehydro-N-methyl-N-(2-propynyl)-6-methyl-8β-aminometylergoline bimaleate) Operant Cage for Self-Injecting
The rats were trained and tested in standard operant test chambers (Coulbourn Instruments, Allentown, Pa., USA). Test chambers were built in a modular form and placed in sound-attenuated cubicles. Each was equipped with a ventilating fan that also served as sound source to mask external sound. Chambers were equipped with bulbs emitting white lights. Each chamber contained two nose-poke operanda mounted in 2 cm from the floor and 10 cm apart on the same wall. […] The cocaine solution was administered via the catheter. The latter connected the rat to a syringe ([…] (RAZEL, model A, 10 rpm), installed outside the cage. Time schedule of the experiments and data acquisition were controlled by a computer operated by a software package (Graphic State Notation 2 2.002-00; Coulbourn Instruments, Allentown, Pa., USA).
Each rat was anesthetized with the anaesthetic mixture (ketamine 60 mg/kg and xylazine 8 mg/kg) and implanted with an indwelling jugular catheter. […]
The rats were trained in self-injection of cocaine in daily, 2-hour self-administration sessions during their light cycle, every day except on Saturdays and Sundays. […] Each activation of the active opening was followed by a 30-second period of inactivation (time-out period when the light in the cage was switched off and activation of the active opening was only recorded but without any consequences). […]

mice [1] = experiment: Inhibition of increased locomotor activity produced by cocaine injection; type: in vivo
Procedure: In the experiments in eight mice, intraperitoneal injection of LEK-8829 (in the form of bimaleate salt) inhibited the increased locomotor activity produced by intraperitoneal cocaine injection of 20 mg/kg.

mice [2] = experiment: Inhibition of spontaneous locomotor activity; type: in vivo; conditions: Mus musculus, ip, LEK-8829 bimaleate i.p.
rats [3] = experiment: Drug discrimination study (cocaine 10 mg/kg) in rats; type: in vivo
Description: (§1) According to the data from literature, it is well known that rodents and primates are capable to discriminate most psychostimulants abused by humans. Therefore, a model of the specific drug discrimination in experimental animals is a suitable method for the assessment of new active substances in case of the abuse of psychostimulants.

Rhesus monkeys [4] = experiment: Drug discrimination study (cocaine 0.4 mg/kg vs physiological saline) in Rhesus monkeys; type: in vivo; conditions: four Rhesus monkeys; doses 0.032 to 0.32 mg/kg; trained on cocaine 0.4 mg/kg vs saline
Description: as §1

rats [5] = experiment: Cocaine self-administration model in rats, saccharin as comparative stimulant; type: in vivo; conditions: for ED50: Rattus norvegicus, rats
Procedure: The action of the active substance LEK-8829 (in the form of bimaleate salt) at doses ranging from 0.25 to 2.5 mg/kg on sensations of pleasure induced by cocaine self-administration was assessed as the effect on the rate of cocaine self-administration in the experiments in five rats. For determination of the specificity of the effect on cocaine, a solution of saccharin was used as a comparative stimulant. […] In the range of medium doses, LEK-8829 caused an increase in overall input of cocaine self-administration in three animals.

Rhesus monkeys [6] = experiment: Cocaine self-administration versus food intake in Rhesus monkeys; type: in vivo
Procedure: The effect of LEK-8829 (in the form of bimaleate salt) at doses of 0.032 to 0.32 mg/kg intramuscularly on cocaine self-administration in comparison with the effect on food intake (specificity of the effect on feelings of pleasure induced by cocaine, in comparison with non-specific sedative effect) was also tested in four Rhesus monkeys.

D2 receptors = conditions: previous studies (Zivin et al 1996, 1998; Sprah et al 1999); cited from earlier work
D1 receptors = D1 receptors (Rattus norvegicus, UniProt P18901); conditions: previous studies (Zivin et al 1996, 1998; Sprah et al 1999); cited from earlier work
Chain of D1 receptors (P18901 whole entry): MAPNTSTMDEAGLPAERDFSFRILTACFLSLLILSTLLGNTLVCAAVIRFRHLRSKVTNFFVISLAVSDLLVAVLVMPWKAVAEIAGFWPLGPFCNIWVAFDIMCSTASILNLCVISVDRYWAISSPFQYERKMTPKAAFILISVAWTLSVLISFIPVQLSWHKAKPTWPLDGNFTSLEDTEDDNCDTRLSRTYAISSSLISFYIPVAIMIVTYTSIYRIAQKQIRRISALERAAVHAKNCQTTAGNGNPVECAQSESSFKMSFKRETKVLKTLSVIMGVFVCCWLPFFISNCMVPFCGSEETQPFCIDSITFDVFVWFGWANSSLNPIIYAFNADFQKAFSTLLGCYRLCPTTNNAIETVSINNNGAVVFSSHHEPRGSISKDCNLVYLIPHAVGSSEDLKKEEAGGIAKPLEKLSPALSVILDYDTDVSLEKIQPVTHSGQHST

| Compound | appetitive behaviour induced by the substance itself (male Wistar rats; bromocriptine 2 mg/kg i.v. before the cocaine injection) | ID50, inhibition of increased locomotor activity produced by cocaine (mice [1]; eight mice, LEK-8829 bimaleate i.p., cocaine 20 mg/kg i.p.) | ratio of ED50/ID50 (spontaneous vs cocaine-increased locomotor activity) (mice [1]; mice, selectivity of the effect against cocaine) | ED50 (mice [2]) | partial antagonism of cocaine effect (rats [3]; rats, dose 2.5 mg/kg) | replacement of the discriminative stimulating effect of cocaine (rats [3]; six rats, doses 0.25 to 2.5 mg/kg) | inhibition of the discriminative stimulating effect of cocaine (rats [3]; six rats, doses 0.5 to 5 mg/kg) | discriminative stimulating effect of plain LEK-8829 in the sense of cocaine effect (Rhesus monkeys [4]) | ED50 (rats [5]; non-specific effect, read-out: ED50, blocking effect on the input of saccharin) | ED50 (rats [5]; read-out: ED50, blocking effect on cocaine self-administration) | effect on the dose/response curve of cocaine self-administration (rats [5]; five rats, dose range printed 0.2.5 to 1.55 mg/kg, four of five animals) | effect on the curve dose/input of cocaine at the largest dose (Rhesus monkeys [6]; Rhesus monkeys, 0.32 mg/kg i.m.) | effect on the curve dose/input of cocaine at small and medium doses (Rhesus monkeys [6]; Rhesus monkeys, 0.032 and 0.1 mg/kg i.m.) | effect on food intake (Rhesus monkeys [6]; Rhesus monkeys, 0.032 to 0.32 mg/kg i.m.) | effect on cocaine self-administration (Rhesus monkeys [6]; four Rhesus monkeys, 0.032 to 0.32 mg/kg intramuscularly, dose-dependent) | effect on cocaine-induced self-injecting (activations of the active opening, last half-hour) (male Wistar rats; LEK-8829 i.v. 0.25 and 0.5 mg/kg, 30 minutes before cocaine 2 mg/kg i.v., p<0.05 vs SAL+COC) | effect on relapse triggered by cocaine (activations of the active opening, last hour) (male Wistar rats; i.p. 0.5 to 5 mg/kg, 30 minutes before cocaine 2 mg/kg i.v., p<0.05 vs SAL+COC) | effect on D2 receptors (D2 receptors) | effect on D1 receptors (D1 receptors) |
| --- | --- | --- | --- | --- | --- | --- | --- | --- | --- | --- | --- | --- | --- | --- | --- | --- | --- | --- | --- |
| CC(C)C[C@H]1C(=O)N2CCC[C@H]2[C@]2(O)O[C@](NC(=O)[C@@H]3C=C4c5cccc6[nH]c(Br)c(c56)C[C@H]4N(C)C3)(C(C)C)C(=O)N12 [Bromocriptine, reference compound] | induced the appetitive behaviour |  |  |  |  |  |  |  |  |  |  |  |  |  |  |  |  |  |  |
| C#CCN(C)C[C@@H]1C=C2c3cccc4[nH]cc(c34)C[C@H]2N(C)C1 [LEK-8829, 9,10-didehydro-N-methyl-N-(2-propynyl)-6-methyl-8β-aminomethylergoline] |  | 1.2 mg/kg | 1.8 | 2.1 mg/kg | 56% | did not replace the discriminative stimulating effect of cocaine | partly inhibited the discriminative stimulating effect of cocaine | did not recognize the discriminative stimulating effect | 2.16 mg/kg | 0.17 mg/kg | produced a right shift of the curve in the ratio dose/response to cocaine | blocked the effect of cocaine along the entire (ascending and descending) part of the curve | decreased the ascending part of the curve | only a minor inhibiting effect on food intake | inhibited cocaine self-administration | statistically significantly reduced cocaine-induced self-injecting | statistically significantly reduced a relapse triggered by cocaine | antagonistic effects on D2 receptors | agonist effects on D1 receptors |
